Experimental data from US20240246981A1, “[…] DERIVATIVES AS INHIBITORS OF […]-PEPTIDE CYCLOTRANSFERASE AND […]-PEPTIDE CYCLOTRANSFERASE LIKE PROTEIN” (Boehringer Ingelheim International GmbH, priority 2022, published 2024).

Assays:
QPCTL = QPCTL (Homo sapiens (Human), UniProt Q9NXS2); assay: Assay A: biochemical QPCTL activity assay (MALDI-TOF MS); details: compounds of the invention, Table 2; read-out: Inhibition of QPCTL: IC50
Experimental: (§1) QPCT or QPCTL dependent conversion of N-terminal glutamine to pyroglutamate of CD47 was monitored via MALDI-TOF MS. Test compounds were dissolved in 100% DMSO and serially diluted into clear 1,536-well microtiter plates. Enzymatic reactions were set up in assay buffer containing 20 mM Tris pH 7.5, 0.1 mM TCEP, 0.01% BSA, and 0.001% Tween20. […] The plates were incubated for 10 min in a humidified incubator at 24° C. Subsequently, 2.5 μL of CD47 peptide substrate surrogate (^19[…]^33) was added to each well (final concentration: 10 μM for QPCTL/20 μM for QPCT). The plates were mixed for 30 sec at 1,000 rpm and subsequently incubated for 40 min in a humidified incubator at 24° C. […] The plates were sealed with an adhesive foil, mixed for 30 s at 1,000 rpm and stored at room temperature until preparation of the MALDI target plates. […] QPCT or QPCTL activity was monitored by calculating the ratio between product and internal standard signals followed by normalization to high (100% activity) and low (0% activity) controls. Determination of compound potencies was obtained by fitting the dose-response data to a four-parameter logistical equation.

QPCT = QPCT (Homo sapiens (Human), UniProt Q16769); assay: Assay A: biochemical QPCT activity assay (MALDI-TOF MS); details: compounds of the invention, Table 2; read-out: Inhibition of QPCT: IC50
Experimental: as §1

[1] = test system: SIRPα signalling induced by Raji cells; assay: Assay B: SIRPα signalling assay using Raji cells; format: cell-based, human; details: Homo sapiens, compounds of the invention, Table 4, read-out: Inhibition of SIRα signalling induced by Raji cells: IC50
Experimental: Bioassay reagent 1 of the PathHunter Bioassay detection kit (DiscoverX 93-0001) was added to each well of the plate using a multichannel pipette followed by a 15 min incubation at room temperature. Afterwards bioassay reagent 2 was added followed by 60 min incubation at room temperature (incubation in the dark).
The analysis of the data was performed using the luminescence signal generated by beta-galactosidase in the PathHunter reporter cell line. The luminescence measurement was done using a Pherastar Multi-Mode Reader.

[2] = test system: SIRPα signalling induced by A549 cells; assay: Assay B: SIRPα signalling assay using A549 cells; format: cell-based, human; details: Homo sapiens, compounds of the invention, Table 4, read-out: Inhibition of SIRα signalling induced by A549 cells: IC50
Experimental: Two cell types are independently used: the Raji cell line (lymphoblastlike human cell line derived from B lymphocytes from a Burkitt's lymphoma patient in 1963) and A549 cells (adenocarcinomic human alveolar basal epithelial cells).
Test compounds were dissolved in 100% DMSO and serially diluted into a white 384-well microtiter cell culture plate (PerkinElmer #60076780 in case of Raji assay; PDL-coated plates Greiner #781945 in case of A549 assay). 5000 Raji cells (ATCC #CC86) or 5000 A549 cells (ATCC #CCL-185) in Assay Complete Cell Plating reagent 30 (DiscoverX 93-0563R30B) were added per well. The assay plate was incubated for 48 h at 37° C., 95% humidity and 5% CO2. 15000 reporter cells (Jurkat PathHunter SIRPα V1, DiscoverX #93-1135C19) were added to each well, and the plate was incubated for 5 h at 37° C., 95% humidity and 5% CO2. Bioassay reagent 1 of the PathHunter Bioassay detection kit (DiscoverX 93-0001) was added to each well of the plate using a multichannel pipette followed by a 15 min incubation at room temperature. Afterwards bioassay reagent 2 was added followed by 60 min incubation at room temperature (incubation in the dark).
The analysis of the data was performed using the luminescence signal generated by beta-galactosidase in the PathHunter reporter cell line. The luminescence measurement was done using a Pherastar Multi-Mode Reader. Dose-response curves & IC50 data were calculated with 4-parameter sigmoidal dose response formula.

[3] = Assay C: permeability in CACO-2 cells; format: in vitro ADME; details: human, pH 7.2, compounds of the invention, Table 7
Experimental: Compounds are dissolved in appropriate solvent (like DMSO, 1-20 mM stock solutions). […] The transport solution (TL) is applied to the apical or basolateral donor side for measuring A-B or B-A permeability (3 filter replicates), respectively. Samples are collected at the start and end of experiment from the donor and at various time intervals for up to 2 hours also from the receiver side for concentration measurement by HPLC-MS/MS or scintillation counting. Sampled receiver volumes are replaced with fresh receiver solution.

QPCT, sequence (Q16769 29-361): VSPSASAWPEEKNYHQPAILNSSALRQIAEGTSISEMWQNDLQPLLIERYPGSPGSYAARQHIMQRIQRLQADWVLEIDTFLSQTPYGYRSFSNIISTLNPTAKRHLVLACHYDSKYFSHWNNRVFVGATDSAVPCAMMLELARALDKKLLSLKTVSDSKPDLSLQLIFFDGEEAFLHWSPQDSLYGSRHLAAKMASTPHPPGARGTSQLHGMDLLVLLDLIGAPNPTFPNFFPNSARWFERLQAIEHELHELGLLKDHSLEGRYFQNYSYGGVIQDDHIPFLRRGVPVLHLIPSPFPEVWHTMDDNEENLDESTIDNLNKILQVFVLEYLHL
QPCTL, sequence (Q9NXS2 whole entry): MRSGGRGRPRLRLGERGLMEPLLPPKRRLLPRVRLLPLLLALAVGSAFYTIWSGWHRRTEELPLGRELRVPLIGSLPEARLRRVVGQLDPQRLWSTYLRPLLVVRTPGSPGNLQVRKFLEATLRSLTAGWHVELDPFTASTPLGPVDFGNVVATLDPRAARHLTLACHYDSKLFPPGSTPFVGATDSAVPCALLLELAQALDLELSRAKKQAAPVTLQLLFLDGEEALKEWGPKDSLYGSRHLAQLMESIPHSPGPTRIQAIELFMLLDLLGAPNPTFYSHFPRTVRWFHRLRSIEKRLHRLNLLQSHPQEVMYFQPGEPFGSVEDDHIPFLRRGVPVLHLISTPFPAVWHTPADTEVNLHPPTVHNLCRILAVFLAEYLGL

IC50 (QPCTL) | IC50 (QPCT) | IC50 [1] | IC50 [2] | Papp A→B ([3]; Caco-2, apical to basolateral) | efflux ratio ([3]; Caco-2) | Papp A→B at 2 h ([3]; Caco-2, apical to basolateral) | efflux ratio at 2 h ([3]; Caco-2) | SMILES
15 nM | 52 nM | 782 nM | 165 nM | 1.6 ×10⁻⁶ cm/s | 11.9 | – | – | Cn1cnnc1C1CCN(c2c(C#N)cccc2-c2cncnc2)CC1 [compound 13]
28 nM | 105 nM | 736 nM | 303 nM | 10.3 ×10⁻⁶ cm/s | 8.7 | – | – | Cn1cnnc1C1CCN(c2c(C#N)cccc2-c2cncc(C3CC3)c2)CC1 [compound 15]
22 nM | 86 nM | 625 nM | 332 nM | 4.5 ×10⁻⁶ cm/s | 12.2 | – | – | COc1cncc(-c2cccc(C#N)c2N2CCC(c3nncn3C)CC2)c1 [compound 16]
15 nM | 77 nM | 1170 nM | 199 nM | 7.3 ×10⁻⁶ cm/s | 7.4 | – | – | Cn1cnnc1C1CCN(c2c(C#N)cccc2-c2cncc(F)c2)CC1 [compound 17]
56 nM | 357 nM | 2270 nM | 294 nM | 13.6 ×10⁻⁶ cm/s | 5 | – | – | Cn1cnnc1C1CCN(c2c(C#N)cccc2-c2ccc(Cl)nc2)CC1 [compound 18]
1 nM | 9 nM | 53 nM | 18 nM | 39 ×10⁻⁶ cm/s | 2 | – | – | CC(C)Oc1cc(-c2cccc(C#N)c2N2CCC(c3nncn3C)CC2)cnc1F [compound 19]
5 nM | 28 nM | 147 nM | 53 nM | 22 ×10⁻⁶ cm/s | 3 | – | – | Cn1cnnc1C1CCN(c2c(C#N)cccc2-c2cnc(F)c(F)c2)CC1 [compound 20]
1 nM | 3 nM | 87 nM | 114 nM | 0.2 ×10⁻⁶ cm/s | 50.6 | – | – | Cn1cc2cc(-c3cccc(C#N)c3N3CCC(c4nncn4C)CC3)cnc2n1 [compound 22]
14 nM | 56 nM | 368 nM | 177 nM | 1 ×10⁻⁶ cm/s | 34 | – | – | Cn1cnnc1C1CCN(c2c(C#N)cccc2-c2cnc3c(c2)NCCO3)CC1 [compound 24]
14 nM | 84 nM | 566 nM | 339 nM | 7.4 ×10⁻⁶ cm/s | 7.4 | – | – | Cn1cnnc1C1CCN(c2c(C#N)cccc2-c2cnc3c(c2)OCO3)CC1 [compound 25]
5 nM | 24 nM | 427 nM | 382 nM | – | – | 0.4 ×10⁻⁶ cm/s | 48.6 | Cn1cnnc1C1CCN(c2c(C#N)cccc2-c2cnc3n[nH]cc3c2)CC1 [compound 26]
2 nM | 12 nM | 250 nM | 282 nM | 5.5 ×10⁻⁶ cm/s | 12.4 | – | – | Cn1cnnc1C1CCN(c2c(C#N)cccc2-c2cnc3nc(-c4cccc(Cl)c4)ccn23)CC1 [compound 28]
3 nM | 25 nM | 121 nM | 81 nM | 3.1 ×10⁻⁶ cm/s | 16.5 | – | – | Cn1cnnc1C1CCN(c2c(C#N)cccc2-c2cncc(-c3ncco3)c2)CC1 [compound 29]
1 nM | 3 nM | 135 nM | 124 nM | < 0.3 ×10⁻⁶ cm/s | > 32 | – | – | Cn1ccnc1-c1cncc(-c2cccc(C#N)c2N2CCC(c3nncn3C)CC2)c1 [compound 30]
9 nM | 71 nM | 244 nM | 135 nM | 39 ×10⁻⁶ cm/s | 2.2 | – | – | Cn1cnnc1C1CCN(c2c(C#N)cccc2-c2cnc(F)c(OC(F)(F)F)c2)CC1 [compound 31]
1 nM | 6 nM | 158 nM | 69 nM | 0.3 ×10⁻⁶ cm/s | 28.1 | – | – | Cn1cnnc1C1CCN(c2c(C#N)cccc2-c2ccnnc2)CC1 [compound 32]
1 nM | 6 nM | 501 nM | 210 nM | < 0.1 ×10⁻⁶ cm/s | > 27 | – | – | Cn1cnnc1C1CCN(c2c(C#N)cccc2-c2cnc3nc[nH]c3c2)CC1 [compound 33]
2 nM | 12 nM | 51 nM | 18 nM | 24 ×10⁻⁶ cm/s | 2.4 | – | – | Cn1cnnc1C1CCN(c2c(C#N)cccc2-c2cnc(F)c(OCc3ccccc3)c2)CC1 [compound 35]
1 nM | 2 nM | 19 nM | 10 nM | 34 ×10⁻⁶ cm/s | 2.4 | – | – | Cn1cnnc1C1CCN(c2c(C#N)cccc2-c2cnc(F)c(OCC3CC3)c2)CC1 [compound 36]
5 nM | 29 nM | 133 nM | 18 nM | 10 ×10⁻⁶ cm/s | 5.1 | – | – | Cn1cnnc1C1CCN(c2c(C#N)cccc2-c2cncc(C3CCCCO3)c2)CC1 (stereo not drawn) [compound 39]
1 nM | 4 nM | 214 nM | 109 nM | 0.1 ×10⁻⁶ cm/s | 100 | – | – | Cn1cnnc1C1CCN(c2c(C#N)cccc2-c2cnc3nnn(C)c3c2)CC1 [compound 40]
4 nM | 24 nM | 105 nM | 72 nM | 36 ×10⁻⁶ cm/s | 2 | – | – | Cn1cnnc1C1CCN(c2c(C#N)cccc2-c2cnc(F)c(Cl)c2)CC1 [compound 42]
